Entries after “also recorded” stand apart in the source; their conditions may differ. Counter-ions that a name gives are not always drawn. Ends that are not written are not given here.
Assays:
[1] = Peak plasma concentration time / response in humans, current oral tablet formulation vs intranasal route; type: in vivo; settings: indicated by rat results
[2] = currently used oral route; cited from earlier work
[3] = Absorption of solubilized sildenafil from the nasal cavity of rats (blood concentration after intranasal vs intravenous administration); type: in vivo; settings: for Concentration of sildenafil in the blood of rats, intranasal, mean: n = 5; for Concentration of sildenafil in the blood of rats, intravenous, mean: n = 3
Procedure: These experiments determine the bioavailability of sildenafil, or derivatives thereof, after nasal administration and compare it to that after intravenous administration. In particular, the present experiment determined the absorption of sildenafil into the blood of rats following intranasal administration of a formulation in which the sildenafil was solubilized by the addition of mesylic acid (see below).
The nasal absorption of sildenafil, or derivatives thereof, were measured using an in vivo technique in rats. Rats were fasted overnight prior to experimentation. Surgical procedures were performed under equithesin anesthesia (3 ml/kg, i.p.). An incision was made in the neck of each rat, and the trachea cannulated with polyethylene tubing (PF-260). A closed end tube was inserted through the esophagus to the posterior part of the nasal cavity to prevent drug from entering the esophagus. The nasopalatine passage was closed with an adhesive agent to prevent drainage of the drug from the nasal cavity to the mouth.
The jugular vein and femoral artery were cannulated with polyethylene tubing for intravenous drug administration and intra-arterial blood sampling.
Solutions of sildenafil hydrochloride (2 and 4 mg/rat/50 μl) were prepared in water and administered through the right nostril using a microsyringe. For intravenous administration, the same dose of the drug was injected into the jugular vein (1 ml/kg body weight). […]
Bioavailability of nasally administered drug was calculated by comparing the plasma drug concentrations between nasal and intravenous delivery routes and expressed as a percentage of the intravenous bioavailability.
The solution instilled into the nasal cavities of the rats in this experiment had the following composition:
Adjust the pH to 2.8 to 3.0 with 0.05M NaOH
At various times following the intranasal and intravenous administration of sildenafil to rats, the concentrations of sildenafil in blood were determined using the following analytical method:
One hundred microliters of rat plasma was treated with 25 microliters of 1M monochloroacetic acid to denature the plasma proteins and release free sildenafil. Seventy-five microliters of acetonitrile was then added to precipitate the proteins. This solution was centifuged for 5 minutes at 5,000 g. The clear supernatant was injected onto the HPLC column.
The HPLC system consisted of the following:
The concentrations are expressed as areas under the HPLC curves×10^-4.

[4] = Solubility of the citrate salt in water; type: physicochemical
[5] = intracavernosal, cited from earlier work; for Results of i.c. injection in erectile dysfunction: either alone or in combination
[6] = sublingual, cited from earlier work
[7] = cited from earlier work

## CCCc1nn(C)c2c(=O)[nH]c(-c3cc(S(=O)(=O)N4CCN(C)CC4)ccc3OCC)nc12 [Sildenafil, 5-[2-ethoxy-5-(4-methyl-1-piperazinylsulphonyl)-phenyl]-1-methyl-3-n-propyl-1,6-dihydro-7H-pyrazolo[4,3-d]pyrimidin-7-one]
[1]
  Response in humans, intranasal route vs current oral tablet: much more rapid response
[2]
  Time to response, oral route: ≥ 60 min
[3]; intranasal vs intravenous
  Effectiveness of intranasal compared with intravenous administration: as effective as intravenous administration
[3]; intranasal, comparison of areas under blood concentration versus time curves with intravenous (FIG. 1)
  Absorption following intranasal administration: complete and very rapid absorption; also recorded: rapidly and complete absorbed
[3]; intranasal
  Concentration of sildenafil in the blood of rats, intranasal, mean: 11.7 areas under the HPLC curves×10
[3]; intranasal, time 2 min
  Concentration of sildenafil in the blood of rats, intranasal, mean: 12.1 areas under the HPLC curves×10
[3]; intranasal, time 5 min
  Concentration of sildenafil in the blood of rats, intranasal, mean: 25.5 areas under the HPLC curves×10
[3]; intranasal, time 10 min
  Concentration of sildenafil in the blood of rats, intranasal, mean: 38.2 areas under the HPLC curves×10
[3]; intranasal, time 15 min
  Concentration of sildenafil in the blood of rats, intranasal, mean: 43.5 areas under the HPLC curves×10
[3]; intranasal, time 20 min
  Concentration of sildenafil in the blood of rats, intranasal, mean: 32.6 areas under the HPLC curves×10
[3]; intranasal, time 30 min
  Concentration of sildenafil in the blood of rats, intranasal, mean: 31.0 areas under the HPLC curves×10
[3]; intranasal, time 40 min
  Concentration of sildenafil in the blood of rats, intranasal, mean: 22.7 areas under the HPLC curves×10
[3]; intranasal, time 50 min
  Concentration of sildenafil in the blood of rats, intranasal, mean: 19.6 areas under the HPLC curves×10
[3]; time 0 min
  Concentration of sildenafil in the blood of rats, intravenous, mean: 188.8 areas under the HPLC curves×10
[3]; time 2 min
  Concentration of sildenafil in the blood of rats, intravenous, mean: 84.7 areas under the HPLC curves×10
[3]; time 5 min
  Concentration of sildenafil in the blood of rats, intravenous, mean: 47.7 areas under the HPLC curves×10
[3]; time 10 min
  Concentration of sildenafil in the blood of rats, intravenous, mean: 32.0 areas under the HPLC curves×10
[3]; time 15 min
  Concentration of sildenafil in the blood of rats, intravenous, mean: 19.5 areas under the HPLC curves×10
[3]; time 20 min
  Concentration of sildenafil in the blood of rats, intravenous, mean: 17.9 areas under the HPLC curves×10
[3]; time 30 min
  Concentration of sildenafil in the blood of rats, intravenous, mean: 16.0 areas under the HPLC curves×10
[3]; time 40 min
  Concentration of sildenafil in the blood of rats, intravenous, mean: 14.6 areas under the HPLC curves×10
[3]; time 50 min
  Concentration of sildenafil in the blood of rats, intravenous, mean: 7.6 areas under the HPLC curves×10
[3]; rat, in vivo, rats, intranasal, approximately, read-out: Time of peak blood concentration
  Tmax: 10 to 15 min

## CCCc1nn(C)c2c(=O)[nH]c(-c3cc(S(=O)(=O)N4CCN(C)CC4)ccc3OCC)nc12 [sildenafil citrate]
[4]
  solubility: 3500 µg/mL

## COc1ccc(Cc2nccc3cc(OC)c(OC)cc23)cc1OC [papaverine]
[5]
  Results of i.c. injection in erectile dysfunction: good results

## CCCCC[C@H](O)/C=C/[C@H]1[C@H](O)CC(=O)[C@@H]1CCCCCCC(=O)O [PGE-1]
[5]
  Results of i.c. injection in erectile dysfunction: good results

## CN1CCc2cccc3c2[C@H]1Cc1ccc(O)c(O)c1-3 [apomorphine]
[6]
  Effect on erectile function: restore normal erectile function
[6]; men whose dysfunction had psychological origins
  Men returned to sexual potency: about 70%

## vasoactive intestinal polypeptide (VIP): vasoactive intestinal polypeptide (HSDAVFTDNYTRLRKQMAVKKYLNSILN; ends and bridges not checked; UniProt P01282 125-152, looked up)
[5]
  Activity i.c.: active i.c.

## CC(COc1ccccc1)N(CCCl)Cc1ccccc1 (stereo not drawn) [phenoxybenzamine]
[5]
  Results of i.c. injection in erectile dysfunction: good results

## O=[N+]([O-])OCC(CO[N+](=O)[O-])O[N+](=O)[O-] [glyceryl trinitrate (GTN), glyceryl trinitrate]
[7]
  Effect of patches applied to the penis: effective
  Side-effects of patches applied to the penis: produces side-effects in both patient and partner

## Cc1ccc(N(CC2=NCCN2)c2cccc(O)c2)cc1 [phentolamine]
[5]
  Results of i.c. injection in erectile dysfunction: good results

Source: patent US6200591A, “Method of administration of sildenafil to produce instantaneous response for the treatment of erectile dysfunction” (priority 1998, dated 2001)
